Patent US12581252B2, “Substituted pyrrolo[3,4-b]pyridines as PI3K-α inhibitors” (Relay Therapeutics, Inc., priority 2020, dated 2026)

Tests used:
[1] = target: H1047R PIK3CA enzyme (Homo sapiens, UniProt P42336, H1047R); test: ADP-Glo Biochemical PIK3CA Kinase Assay
[2] = cells; conditions: Homo sapiens, MCF-10A, read-out: MCF10A IC50

Chain of H1047R PIK3CA enzyme (P42336 whole entry H1047R): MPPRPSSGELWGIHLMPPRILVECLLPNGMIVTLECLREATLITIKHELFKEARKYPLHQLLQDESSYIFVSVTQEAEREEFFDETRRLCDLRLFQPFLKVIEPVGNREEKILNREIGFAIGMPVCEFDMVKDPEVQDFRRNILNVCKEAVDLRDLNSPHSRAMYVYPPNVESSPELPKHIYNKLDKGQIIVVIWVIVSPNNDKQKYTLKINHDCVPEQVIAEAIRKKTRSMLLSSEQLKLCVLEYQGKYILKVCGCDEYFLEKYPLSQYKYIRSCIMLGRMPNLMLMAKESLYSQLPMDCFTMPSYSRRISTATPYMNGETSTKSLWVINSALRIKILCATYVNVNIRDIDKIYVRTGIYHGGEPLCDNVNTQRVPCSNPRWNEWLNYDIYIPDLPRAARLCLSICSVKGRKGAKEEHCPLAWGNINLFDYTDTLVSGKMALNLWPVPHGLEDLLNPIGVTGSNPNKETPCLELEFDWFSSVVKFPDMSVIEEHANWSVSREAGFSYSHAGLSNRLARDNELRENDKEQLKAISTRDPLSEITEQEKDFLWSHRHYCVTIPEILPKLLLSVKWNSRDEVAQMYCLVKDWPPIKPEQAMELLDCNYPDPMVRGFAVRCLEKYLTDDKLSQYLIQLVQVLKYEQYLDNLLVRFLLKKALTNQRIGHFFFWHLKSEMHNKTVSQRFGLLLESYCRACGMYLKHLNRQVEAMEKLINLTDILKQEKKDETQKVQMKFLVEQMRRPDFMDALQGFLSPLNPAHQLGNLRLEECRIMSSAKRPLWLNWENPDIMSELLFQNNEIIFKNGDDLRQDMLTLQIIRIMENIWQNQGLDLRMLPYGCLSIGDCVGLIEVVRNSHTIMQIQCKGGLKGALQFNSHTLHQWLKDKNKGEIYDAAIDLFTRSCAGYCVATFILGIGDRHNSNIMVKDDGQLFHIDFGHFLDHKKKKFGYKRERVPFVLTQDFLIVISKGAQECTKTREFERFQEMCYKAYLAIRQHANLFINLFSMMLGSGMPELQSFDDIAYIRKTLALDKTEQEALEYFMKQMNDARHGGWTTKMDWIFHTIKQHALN
Chain of H1047R PIK3CA enzyme (P27986 whole entry partner): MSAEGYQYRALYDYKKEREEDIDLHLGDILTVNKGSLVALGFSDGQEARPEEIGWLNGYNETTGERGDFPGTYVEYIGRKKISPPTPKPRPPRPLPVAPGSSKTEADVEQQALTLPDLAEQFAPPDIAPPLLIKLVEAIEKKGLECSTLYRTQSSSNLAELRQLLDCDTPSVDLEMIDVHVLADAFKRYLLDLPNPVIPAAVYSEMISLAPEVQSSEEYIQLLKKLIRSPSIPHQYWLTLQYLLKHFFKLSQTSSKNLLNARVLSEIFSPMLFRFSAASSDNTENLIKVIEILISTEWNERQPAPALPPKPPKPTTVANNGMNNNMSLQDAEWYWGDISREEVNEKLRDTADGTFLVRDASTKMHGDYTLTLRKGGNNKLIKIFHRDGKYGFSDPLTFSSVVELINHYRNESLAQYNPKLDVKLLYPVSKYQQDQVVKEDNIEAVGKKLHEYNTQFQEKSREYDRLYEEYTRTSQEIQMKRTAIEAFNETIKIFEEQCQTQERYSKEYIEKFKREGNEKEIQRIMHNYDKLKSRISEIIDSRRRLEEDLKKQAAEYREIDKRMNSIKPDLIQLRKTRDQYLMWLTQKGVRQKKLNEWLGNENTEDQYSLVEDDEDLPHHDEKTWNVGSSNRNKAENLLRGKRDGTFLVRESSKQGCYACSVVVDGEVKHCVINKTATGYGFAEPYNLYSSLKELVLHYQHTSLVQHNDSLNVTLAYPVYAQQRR

SMILES | IC50 [1] | IC50 [2]
O=C1NC(c2cc(F)ccc2Cl)c2c(NC(=O)N3CC(O)(C(F)(F)F)c4ccccc43)cc(Cl)cc21 (mixture of isomers) [Compound I-2483] | ≤ 100 nM | < 1000 nM
Cc1ccccc1C1NC(=O)c2cc(NC(C)C)cc(NC(=O)c3csc4ccccc34)c21 (centres unmarked) [Compound I-53] | ≤ 100 nM | < 1000 nM
NCc1cc(NC(=O)N2CC(O)(C(F)F)c3cc(F)ccc32)c2c(c1)C(=O)NC2c1cc(F)ccc1Cl (centres unmarked) [Compound I-2597] | ≤ 100 nM | 10000 to 36000 nM
O=C(Nc1cc(-c2ccc(N3CCOCC3)nc2)cc2c1C(c1cc(F)ccc1Cl)NC2=O)c1cc(F)cc(C(F)(F)F)c1 (centres unmarked) [Compound I-929] | ≤ 100 nM | < 1000 nM
O=C(Nc1cc(-c2ccnc3[nH]ccc23)cc2c1C(c1cc(F)ccc1Cl)NC2=O)c1cc(F)cc(C(F)(F)F)c1 (centres unmarked) [Compound I-1049] | ≤ 100 nM | < 1000 nM
N#CN1CC(c2cc(NC(=O)c3cc(F)cc(C(F)(F)F)c3)c3c(c2)C(=O)NC3c2cc(F)ccc2Cl)C1 (centres unmarked) [Compound I-1157] | ≤ 100 nM | 5000 to 10000 nM
N#CCOc1cc(NC(=O)c2cc(F)cc(C(F)(F)F)c2)c2c(c1)C(=O)NC2c1cc(F)ccc1Cl (centres unmarked) [Compound I-1160] | ≤ 100 nM | < 1000 nM
O=C(Nc1cccc2c1C(c1cc(F)ccc1Cl)NC2=O)c1csc2c1CCCC2 (centres unmarked) [Compound I-2239] | ≤ 100 nM | 1000 to 5000 nM
O=C1NC(c2cc(F)ccc2Cl)c2c(NC(=O)N3CC(O)c4cc(F)ccc43)cc(-n3cncn3)cc21 (mixture of isomers) [Compound I-2414] | 100 to 500 nM | 10000 to 36000 nM
C[C@@H](C#N)Cn1cc(-c2cc(NC(=O)N3C[C@@H](O)c4cc(F)ccc43)c3c(c2)C(=O)N[C@H]3c2cc(F)ccc2Cl)cn1 (single isomer, unassigned) [Compound I-2503] | ≤ 100 nM | 5000 to 10000 nM
COCc1cc(NC(=O)N2C[C@@](O)(C(F)(F)F)c3cc(F)ccc32)c2c(c1)C(=O)N[C@@H]2c1cc(F)ccc1Cl (single isomer, unassigned) [Compound I-2541] | ≤ 100 nM | < 1000 nM
O=C(Nc1cc(-c2cn3ncnc3cn2)cc2c1C(c1cc(F)ccc1C(F)F)NC2=O)c1cc(F)cc(Cl)c1 (centres unmarked) [Compound I-2201] | ≤ 100 nM | 1000 to 5000 nM
O=C(Nc1cc(NC2=NCC(C(F)(F)F)O2)cc2c1C(c1cc(F)ccc1Cl)NC2=O)c1cc(F)cc(C(F)(F)F)c1 (centres unmarked) [Compound I-2297] | ≤ 100 nM | 1000 to 5000 nM
N#Cc1cc(NC(=O)N2CC(O)(C(F)(F)F)c3cc(F)ccc32)c2c(c1)C(=O)NC2c1cc(F)ccc1Cl (centres unmarked) [Compound I-2469] | ≤ 100 nM | < 1000 nM
O=C(Nc1cc(-c2cccn3nccc23)cc2c1C(c1cc(F)ccc1Cl)NC2=O)c1cc(F)cc(C(F)(F)F)c1 (centres unmarked) [Compound I-983] | ≤ 100 nM | < 1000 nM
Nc1cc(NC(=O)c2cc(F)cc(C(F)(F)F)c2)c2c(c1)C(=O)NC2c1cc(F)ccc1C(F)F (centres unmarked) [Compound I-289] | ≤ 100 nM | < 1000 nM
O=C(Nc1cc(C2CC(O)C2)cc2c1C(c1cc(F)ccc1Cl)NC2=O)c1cc(F)cc(C(F)(F)F)c1 (centres unmarked) [Compound I-1019] | ≤ 100 nM | < 1000 nM
N#Cc1cc(NC(=O)N2CC(O)(C(F)(F)F)c3ccccc32)c2c(c1)C(=O)NC2c1cc(F)ccc1Cl (centres unmarked) [Compound I-2473] | ≤ 100 nM | < 1000 nM
CNC(=O)c1cc(NC(=O)c2csc3ccccc23)c2c(c1)C(=O)NC2c1ccccc1C (racemic) [Compound I-6, 7-(Benzo[b]thiophene-3-carboxamido)-N-methyl-3-oxo-1-(o-tolyl)isoindoline-5-carboxamide] | ≤ 100 nM | < 1000 nM
O=C(Nc1cc(-c2ncc[nH]2)cc2c1[C@H](c1cc(F)ccc1Cl)NC2=O)c1cc(F)cc(C(F)(F)F)c1 [Compound I-919] | ≤ 100 nM | < 1000 nM
Cc1ccccc1C1NC(=O)c2cccc(NC(=O)N3CC(C)(C)c4ccccc43)c21 (centres unmarked) [Compound I-45] | 1000 to 10000 nM | 10000 to 36000 nM
Nc1cc(NC(=O)c2cc(F)cc(C(F)(F)F)c2)c2c(c1)C(=O)NC2c1cc(F)ccc1Cl (centres unmarked) [Compound I-125] | ≤ 100 nM | < 1000 nM
N#Cc1cc(NC(=O)N2C[C@@](O)(C(F)(F)F)c3cc(F)ccc32)c2c(c1)C(=O)N[C@@H]2c1cc(F)ccc1Cl (single isomer, unassigned) [Compound I-2560] | ≤ 100 nM | < 1000 nM
O=C1NC(c2cc(F)ccc2Cl)c2c(NC(=O)N3CCc4cc(F)ccc43)cc(-c3cnn(C(F)F)c3)cc21 (centres unmarked) [Compound I-2300] | ≤ 100 nM | 1000 to 5000 nM
O=C1Cc2ccc(-c3cc(NC(=O)c4cc(F)cc(C(F)(F)F)c4)c4c(c3)C(=O)NC4c3cc(F)ccc3Cl)cc2N1 (centres unmarked) [Compound I-982] | ≤ 100 nM | < 1000 nM
